Assay results published in ChEMBL document CHEMBL5154879, “Induction of Genes Implicated in Stress Response and Autophagy by a Novel Quinolin-8-yl-nicotinamide QN523 in Pancreatic Cancer” (J Med Chem, 2022).

Legend:
Assay type in all cases: functional, cell-based
[1] = system: MIA PaCa-2; assay: Cytotoxicity against human MIA PaCa-2 cells assessed as inhibition of cell growth incubated for 72 hrs by MTT assay; conditions: MIA PaCa-2, 72 h
[2] = system: BXPC-3; assay: Cytotoxicity against human BXPC-3 cells assessed as inhibition of cell growth incubated for 72 hrs by MTT assay; conditions: BXPC-3, 72 h
[3] = system: PANC-1; assay: Cytotoxicity against human PANC-1 cells assessed as inhibition of cell growth incubated for 72 hrs by MTT assay; conditions: PANC-1, 72 h

| SMILES | IC50 [1] | IC50 [2] | IC50 [3] |
| --- | --- | --- | --- |
| Cc1cnc(C(=O)Nc2cc(OCCC3CCNCC3)cc3cccnc23)cn1 | 6.17 µM | 8.33 µM | > 10 µM |
| O=C(Nc1ccc(Br)c2cccnc12)c1cnccn1 | 0.75 µM | 7.5 µM | 7 µM |
| COc1cc(NC(=O)c2cnc(C)cn2)c2ncccc2c1 | 0.27 µM | 6.7 µM | 0.8 µM |
| Cc1cnc(C(=O)Nc2cc(OCCNC(=O)OC(C)(C)C)cc3cccnc23)cn1 | 0.67 µM | 3.67 µM | 2.17 µM |
| Cc1cnc(C(=O)Nc2ccc3ncccc3c2)cn1 | > 10 µM | > 10 µM | > 10 µM |
| O=C(Nc1cccc2cccnc12)c1ccc(Br)nc1 | > 10 µM | > 10 µM | > 10 µM |
| Cc1cnc(C(=O)Nc2cccc3ccc(C)nc23)cn1 | > 10 µM | > 10 µM | > 10 µM |
| COc1cc(NC(=O)c2cnccn2)c2ncccc2c1 | 0.47 µM | 0.47 µM | 2.17 µM |
| O=C(Nc1cccc2cccnc12)c1ccc(F)nc1 | > 10 µM | > 10 µM | > 10 µM |
| O=C(Nc1cc(OCCC2CCNCC2)cc2cccnc12)c1ncccn1 | > 10 µM | > 10 µM | > 10 µM |
| O=C(Nc1cccc2cccnc12)c1cnc(Cl)cn1 | 7 µM | > 10 µM | 9.3 µM |
| O=C(Nc1cc(Cl)cc2cccnc12)c1cnccn1 | 2.83 µM | > 10 µM | 2.7 µM |
| CN(C)CCOc1cc(NC(=O)c2cnccn2)c2ncccc2c1 | > 10 µM | > 10 µM | > 10 µM |
| O=C(Nc1cccc2cccnc12)c1cccnn1 | 8.5 µM | > 10 µM | > 10 µM |
| O=C(Nc1cc(F)cc2cccnc12)c1cnccn1 | 0.13 µM | > 10 µM | 0.67 µM |
| Cc1cnc(C(=O)Nc2cc(OCCC3CCN(C(=O)OC(C)(C)C)CC3)cc3cccnc23)cn1 | 9 µM | 9.33 µM | 9.67 µM |
| O=C(Nc1cc(OCCN2CCCCC2)cc2cccnc12)c1cnccn1 | > 10 µM | > 10 µM | > 10 µM |
| Cc1cnc(C(=O)Nc2cc(Cl)cc3cccnc23)cn1 | 1.5 µM | 5.2 µM | 1.77 µM |
| Cc1cnc(C(=O)Nc2cc(OCCN(C)C)cc3cccnc23)cn1 | 1.8 µM | 9.67 µM | 4.5 µM |
| O=C(Nc1cccc2cccnc12)c1ncc2ccccc2n1 | > 10 µM | > 10 µM | > 10 µM |
| O=C(Nc1nccc2cccnc12)c1cnccn1 | 7.7 µM | 7.2 µM | 6.7 µM |
| CC(C)(C)OC(=O)NCCOc1cc(NC(=O)c2cnccn2)c2ncccc2c1 | 0.87 µM | 9.17 µM | 9.5 µM |
| O=C(Nc1cc(OCCN2CCOCC2)cc2cccnc12)c1cnccn1 | 1.7 µM | 5.17 µM | 8.17 µM |
